# Source: patent US12478605B2, “Biochanin a derivatives for treatment of BEST1-related retinopathies” (Universität Regensburg, priority 2020, dated 2025)
# Where a name gives a salt, the structure may show the parent alone.
# Biological target: T1, mutant BEST1 R218C (Homo sapiens, UniProt O76090, R218C)
# T1 construct: expressed in transfected cells
# T1 sequence (O76090 1-585 R218C): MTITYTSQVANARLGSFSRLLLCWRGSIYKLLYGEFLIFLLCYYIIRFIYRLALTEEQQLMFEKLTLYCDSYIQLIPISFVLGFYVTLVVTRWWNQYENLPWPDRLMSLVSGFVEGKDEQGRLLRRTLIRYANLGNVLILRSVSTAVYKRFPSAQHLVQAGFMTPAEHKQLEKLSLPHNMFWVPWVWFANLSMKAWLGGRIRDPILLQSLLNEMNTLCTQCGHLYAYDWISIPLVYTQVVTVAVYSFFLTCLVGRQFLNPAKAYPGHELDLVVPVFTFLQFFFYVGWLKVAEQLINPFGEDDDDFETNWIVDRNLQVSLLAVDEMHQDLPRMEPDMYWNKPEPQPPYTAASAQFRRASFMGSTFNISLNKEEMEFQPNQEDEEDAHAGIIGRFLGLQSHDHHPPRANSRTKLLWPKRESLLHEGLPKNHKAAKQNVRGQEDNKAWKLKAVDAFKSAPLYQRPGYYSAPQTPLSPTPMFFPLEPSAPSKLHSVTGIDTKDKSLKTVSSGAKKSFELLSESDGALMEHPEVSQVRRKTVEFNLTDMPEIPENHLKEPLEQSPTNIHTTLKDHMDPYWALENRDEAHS
# Test: YFP-halide transport assay (I- influx), MDCKII cells expressing mutant BEST1-R218C
# Format: cell-based
# Settings: MDCKII cells; cell line not stated; FIG. 4D
# Method: Human hiPSC-RPE or MDCKII cells were transduced via lentivirus particles which were produced by co-transfecting HEK293T cells with the yellow fluorescence protein (YFPH148Q/I152L)-pLJM1 and helper plasmids pMD2.G and psPAX2 using the Ca^2+ phospate transfection method. After six weeks of cultivation in 96-well black microtiter plates, cells were incubated with 100 mM Cl^− containing solution and basal YFP fluorescence was measured in a Tecan microplate reader. Subsequently Cl^− was replaced with equimolar I^− and decrease of YFP fluorescence intensity was monitored for another 2 min in 10 sec intervals.
# To analyze BEST1-mediated anion transport in the cell lines generated in the previous examples, a well-established halide transport assay (Galietta et al., 2001) was adapted. […] Addition of I— leads to specific YFP quenching over time and changes of fluorescence intensities can be monitored on a plate reader. MDCKII cells were incubated with 100 mM Cl— containing solution and steady state YFP fluorescence signal intensities were measured after 6 minutes. Subsequently, Cl— was replaced by equimolar I— and anion permeability was monitored by decreasing YFP intensities as a result of BEST1-mediated I— influx in a time course up to 2 minutes (FIG. 2B). For several independent BEST1 wildtype cell lines a fast kinetic of decreasing fluorescence intensities to ˜30 to 40% was observed while the untransfected control cell lines remained flat (FIGS. 2C and D).
# Example 8—Evaluation of BioA(C2H3O2)2 activity in MDCKII cells MDCKII cells co-expressing YFP and BEST1 wildtype or mutant p.(R218C) were seeded on black 96-well plates and cultivated for 6 days to achieve polarity, a requirement for correct basolateral localization of BEST1 in epithelial cells. Compounds were tested separately at 10 μM concentration in a 96-well format. After compound addition for 24 h, cells were subjected to an inwardly directed I— gradient to drive I— influx and produce decreasing (quenched) fluorescence signals. […]
row,SMILES,effect on BEST1-mediated I- influx
1,COc1ccc(-c2coc3cc(O)cc(O)c3c2=O)cc1 [Biochanin A],no effect

# Biological target: T1, mutant BEST1 R218C
# Test: YFP-based I- efflux assay in MDCKII cells co-expressing YFP and mutant BEST1 R218C
# Format: cell-based
# Settings: 5 μM, compound addition for 24 h, FIGS. 6-8
# Method: MDCKII cells co-expressing yellow fluorescence protein (YFP) and mutant BEST1 R218C were seeded on black 96-well plates and cultivated for 6 days to achieve polarity, a crucial requirement for correct basolateral localization of BEST1 in epithelial cells. Compounds were tested at 5 μM concentration in a 96-well format. After compound addition for 24 h, cells were subjected to an outwardly directed iodid (I^−)-gradient to drive BEST1-mediated I^− efflux and produce increasing fluorescence signals. Each assay consisted of recording of YFP quenching after I^− pre-incubation for 6 min (=100% value), followed by 7 min of recording of increasing fluorescence after addition of the chloride (Cr) containing solution. Changes of fluorescence intensities were monitored on a plate reader. The effect on the kinetics of I— efflux was tested for Biochanin A (FIG. 6A), Trimethoxyisoflavone (FIG. 6B), 5,4-dimethoxy hydroxyisoflavone (FIG. 6C), Biochanin A-7-methyl ether (FIG. 6D), Biochanin A-7-acetate (FIG. 6E), Biochanin A diacetate (FIG. 6F), Biochanin A-7-pentanoate (FIG. 6G), Biochanin A dipentanoate (FIG. 6H), Biochanin A-7-pivalate (FIG. 7A), Biochanin A-dipavalate (FIG. 7B), Biochanin A-7-acrylate (FIG. 7C), Biochanin A diacrylate (FIG. 7D), Biochanin A-7-methyl fumarate (FIG. 7E), Biochanin A-di(methyl fumarate) (FIG. 7F), Biochanin A-7-butylcarbamate (FIG. 7G), Biochanin A di(butylcarbamate) (FIG. 7H), Biochanin A-7-phosphate disodium salt (FIG. 8A), Biochanin A-7-isopropylate (FIG. 8B), 7-pivaloxymethyl-Biochanin A (FIG. 8C), Biochanin A diisopropylate (FIG. 8D), Biochanin A-7-isopropyl carbonate (FIG. 8E), Biochanin A diisopropyl carbonate (FIG. 8F), Isopropyloxycarbonylmethoxy-Biochanin A (FIG. 8G).
row,SMILES,anion transport activity (kinetics of I- efflux) in comparison to untreated cells
1,COc1ccc(-c2coc3cc(OCOC(=O)OC(C)C)cc(O)c3c2=O)cc1,noticeable increased
2,"COc1ccc(-c2coc3cc(O)cc(OC)c3c2=O)cc1 [5,4-dimethoxy-7-hydroxyisoflavone]",no or only minimal effect
3,"COc1ccc(-c2coc3cc(OCOC(=O)C(C)(C)C)cc(O)c3c2=O)cc1 [7-pivaloxymethyl-Biochanin A, 7-Pivaloxymethyl-Biochanin A]",noticeable increased
4,CCCCNC(=O)Oc1cc(OC(=O)NCCCC)c2c(=O)c(-c3ccc(OC)cc3)coc2c1 [Biochanin A di(butylcarbamate)],strongly increased
5,C=CC(=O)Oc1cc(OC(=O)C=C)c2c(=O)c(-c3ccc(OC)cc3)coc2c1 [Biochanin A diacrylate],strongly increased
6,COc1ccc(-c2coc3cc(OC(=O)OC(C)C)cc(OC(=O)OC(C)C)c3c2=O)cc1 [Biochanin A diisopropyl carbonate],strongly increased
7,COc1ccc(-c2coc3cc(OC(=O)C(C)C)cc(OC(=O)C(C)C)c3c2=O)cc1 [Biochanin A diisopropylate],strongly increased
8,CCCCC(=O)Oc1cc(OC(=O)CCCC)c2c(=O)c(-c3ccc(OC)cc3)coc2c1 [Biochanin A dipentanoate],strongly increased
9,COc1ccc(-c2coc3cc(OC(C)=O)cc(O)c3c2=O)cc1 [Biochanin A-7-acetate],no or only minimal effect
10,C=CC(=O)Oc1cc(O)c2c(=O)c(-c3ccc(OC)cc3)coc2c1 [Biochanin A-7-acrylate],noticeable increased
11,CCCCNC(=O)Oc1cc(O)c2c(=O)c(-c3ccc(OC)cc3)coc2c1 [Biochanin A-7-butylcarbamate],no or only minimal effect
12,COc1ccc(-c2coc3cc(OC(=O)OC(C)C)cc(O)c3c2=O)cc1 [Biochanin A-7-isopropyl carbonate],strongly increased
13,COc1ccc(-c2coc3cc(OC(=O)C(C)C)cc(O)c3c2=O)cc1 [Biochanin A-7-isopropylate],no or only minimal effect
14,COc1ccc(-c2coc3cc(OC)cc(O)c3c2=O)cc1 [Biochanin A-7-methyl ether],no or only minimal effect
15,COC(=O)/C=C/C(=O)Oc1cc(O)c2c(=O)c(-c3ccc(OC)cc3)coc2c1 [Biochanin A-7-methyl fumarate],no or only minimal effect
16,CCCCC(=O)Oc1cc(O)c2c(=O)c(-c3ccc(OC)cc3)coc2c1 [Biochanin A-7-pentanoate],no or only minimal effect
17,COc1ccc(-c2coc3cc(OP(=O)([O-])[O-])cc(O)c3c2=O)cc1.[Na+].[Na+] [Biochanin A-7-phosphate disodium salt],noticeable increased
18,COc1ccc(-c2coc3cc(OC(=O)C(C)(C)C)cc(O)c3c2=O)cc1 [Biochanin A-7-pivalate],no or only minimal effect
19,"COC(=O)/C=C/C(=O)Oc1cc(OC(=O)/C=C/C(=O)OC)c2c(=O)c(-c3ccc(OC)cc3)coc2c1 [Biochanin A-di(methyl fumarate), Biochanin A di(methyl fumarate)]",strongly increased
20,"COc1ccc(-c2coc3cc(OC(=O)C(C)(C)C)cc(OC(=O)C(C)(C)C)c3c2=O)cc1 [Biochanin A-dipavalate, Biochanin A dipivalate]",noticeable increased
21,COc1ccc(-c2coc3cc(O)cc(O)c3c2=O)cc1 [Biochanin A],no or only minimal effect
